This assay deals with human salt-induced kinase 3 (SIK3) (Homo sapiens, UniProt Q9Y2K2). The assay can be described thus: KinaseProfiler radiometric protein kinase assay (Eurofins), ATP at Km. It is filed as biochemical.

The structures appear in SMILES notation.

A word on the IC50: it is the midpoint of a concentration-inhibition curve.

Chain of human salt-induced kinase 3 (SIK3) (Q9Y2K2 whole entry): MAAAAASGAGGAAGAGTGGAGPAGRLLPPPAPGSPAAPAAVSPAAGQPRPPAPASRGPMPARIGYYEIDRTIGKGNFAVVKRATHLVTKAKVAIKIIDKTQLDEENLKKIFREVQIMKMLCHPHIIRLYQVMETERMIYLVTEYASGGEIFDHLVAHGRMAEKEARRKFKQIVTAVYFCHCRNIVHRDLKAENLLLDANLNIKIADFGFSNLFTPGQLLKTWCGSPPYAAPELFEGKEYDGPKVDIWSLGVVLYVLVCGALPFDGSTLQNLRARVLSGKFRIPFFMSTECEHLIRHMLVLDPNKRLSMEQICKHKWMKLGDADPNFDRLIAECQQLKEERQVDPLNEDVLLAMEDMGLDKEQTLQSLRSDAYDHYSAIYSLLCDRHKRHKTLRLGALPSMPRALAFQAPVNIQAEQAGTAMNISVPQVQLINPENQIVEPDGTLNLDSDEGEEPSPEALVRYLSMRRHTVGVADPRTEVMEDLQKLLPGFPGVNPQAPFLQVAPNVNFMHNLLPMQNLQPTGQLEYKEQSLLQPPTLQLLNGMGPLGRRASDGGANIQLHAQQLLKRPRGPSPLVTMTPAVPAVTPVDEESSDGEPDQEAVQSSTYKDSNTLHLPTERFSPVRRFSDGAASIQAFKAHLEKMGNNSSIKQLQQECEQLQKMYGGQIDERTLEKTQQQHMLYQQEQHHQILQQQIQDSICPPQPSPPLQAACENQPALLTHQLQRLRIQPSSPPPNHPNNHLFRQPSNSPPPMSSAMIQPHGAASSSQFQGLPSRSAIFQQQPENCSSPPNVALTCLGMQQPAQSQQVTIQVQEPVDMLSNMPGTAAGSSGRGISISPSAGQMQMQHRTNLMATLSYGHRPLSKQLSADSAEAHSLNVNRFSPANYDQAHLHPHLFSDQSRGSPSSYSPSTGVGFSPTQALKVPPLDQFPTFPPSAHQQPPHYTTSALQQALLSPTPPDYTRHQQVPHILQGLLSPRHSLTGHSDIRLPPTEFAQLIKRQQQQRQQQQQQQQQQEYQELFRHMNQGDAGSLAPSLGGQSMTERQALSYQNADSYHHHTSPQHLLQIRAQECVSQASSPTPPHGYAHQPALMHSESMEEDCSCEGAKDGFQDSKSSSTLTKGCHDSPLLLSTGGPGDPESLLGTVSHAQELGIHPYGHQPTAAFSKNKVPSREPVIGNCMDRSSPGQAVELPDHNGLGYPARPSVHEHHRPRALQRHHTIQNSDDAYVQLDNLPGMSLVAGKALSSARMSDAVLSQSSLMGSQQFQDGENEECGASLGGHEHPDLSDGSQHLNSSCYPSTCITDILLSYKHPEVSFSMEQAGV

Consider `COc1cc(/C=C/C(=O)CC(=O)/C=C/c2ccc(O)c(OC)c2)ccc1O` [curcumin], for which the IC50 amounted to 131 nM.

Values taken from paper PMC10133576, “Interactions between curcumin and human salt-induced kinase 3 elucidated from computational tools and experimental methods” (Frontiers in Pharmacology, 2023).
